Laboratory results published in ChEMBL document CHEMBL1201862, “PubChem BioAssay data set” (2004).
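How tested: cells in 96-well plates exposed to compound for 48 hours at five concentrations. Abbreviation: GI50, concentration required for 50% inhibition of growth.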 Activity calls are given as the source filed them. Rule as the data show it: active = GI50 up to about 1.1 µM and inactive = higher.

Tests used:
Test in all cases: growth of human tumour cells (NCI), 48 h
[1] = test system: ACHN
[2] = test system: HL-60
[3] = test system: CCRF-CEM
[4] = test system: KM12
[5] = test system: SNB-75
[6] = test system: XF498
[7] = test system: K562
[8] = test system: SNB-19
[9] = test system: SW-620
[10] = test system: OVCAR-5
[11] = test system: A549
[12] = test system: NCI-H522
[13] = test system: SK-OV-3
[14] = test system: SK-MEL-2
[15] = test system: HOP-62
[16] = test system: SK-MEL-28
[17] = test system: BT-549
[18] = test system: Hs-578T
[19] = test system: NCI/ADR-RES
[20] = test system: MDA-MB-435

SMILES	GI50 [1]	GI50 [2]	GI50 [3]	GI50 [4]	GI50 [5]	GI50 [6]	GI50 [7]	GI50 [8]	GI50 [9]	GI50 [10]	GI50 [11]	GI50 [12]	GI50 [13]	GI50 [14]	GI50 [15]	GI50 [16]	GI50 [17]	GI50 [18]	GI50 [19]	GI50 [20]
CN(Cc1ccccc1)C(=O)c1ccccc1C(=O)O	> 100 µM (inactive)	> 100 µM (inactive)	> 100 µM (inactive)	> 100 µM (inactive)	> 100 µM (inactive)	> 100 µM (inactive)	> 100 µM (inactive)	> 100 µM (inactive)	> 100 µM (inactive)	> 100 µM (inactive)	> 100 µM (inactive)	> 100 µM (inactive)	> 100 µM (inactive)	> 100 µM (inactive)						
COc1ccc2oc3c(OC)c(OC)c(OC)cc3c(=O)c2c1	> 100 µM (inactive)		> 100 µM (inactive)		24.7 µM (inactive)	> 100 µM (inactive)	> 100 µM (inactive)	> 100 µM (inactive)	> 100 µM (inactive)	> 100 µM (inactive)	> 100 µM (inactive)	21.8 µM (inactive)	> 100 µM (inactive)	> 100 µM (inactive)	50.2 µM (inactive)	> 100 µM (inactive)				
Cc1cc(N(CCC#N)CCC#N)ccc1/C=C(\NC(=O)/C=C/c1ccccc1)NC(=O)Nc1ccc(Cl)cc1	7.28 µM (inactive)	37.5 µM (inactive)	> 100 µM (inactive)	15 µM (inactive)		> 100 µM (inactive)	2.13 µM (inactive)	48.4 µM (inactive)	> 100 µM (inactive)	> 100 µM (inactive)	32.5 µM (inactive)			> 100 µM (inactive)		> 100 µM (inactive)				
CCCN(CCC)c1c([N+](=O)[O-])cc(C(=O)N(C)C)cc1[N+](=O)[O-]	16.4 µM (inactive)	15.6 µM (inactive)	28.4 µM (inactive)	> 100 µM (inactive)	17 µM (inactive)	54.7 µM (inactive)	19.2 µM (inactive)			> 100 µM (inactive)	51.5 µM (inactive)	62.1 µM (inactive)	> 100 µM (inactive)	> 100 µM (inactive)		> 100 µM (inactive)				
C/C(N)=[N+](/C)[O-]	31.6 µM (inactive)	> 100 µM (inactive)	23.4 µM (inactive)	> 100 µM (inactive)	> 100 µM (inactive)	> 100 µM (inactive)	39.5 µM (inactive)			> 100 µM (inactive)	> 100 µM (inactive)	72.6 µM (inactive)	> 100 µM (inactive)	> 100 µM (inactive)	> 100 µM (inactive)	82.4 µM (inactive)				
COC1C(O)CC(OC2C(C)OC(Oc3cc(O)c4c(O)c5c(cc4c3)C[C@@H]([C@H](OC)C(=O)[C@@H](O)[C@@H](C)O)[C@H](OC3CC(OC4CC(OC6CC(C)(O)C(O)C(C)O6)C(O)C(C)O4)C(O)C(C)O3)C5=O)CC2OC(C)=O)OC1C (stereo partly drawn)	56.1 µM (inactive)	> 100 µM (inactive)	> 100 µM (inactive)	88.1 µM (inactive)	> 100 µM (inactive)		40.1 µM (inactive)	33.2 µM (inactive)	> 100 µM (inactive)	> 100 µM (inactive)	63.1 µM (inactive)	39.1 µM (inactive)	> 100 µM (inactive)	79.3 µM (inactive)	> 100 µM (inactive)	32.2 µM (inactive)	> 100 µM (inactive)	20.3 µM (inactive)	> 100 µM (inactive)	34 µM (inactive)
Cc1cc2c(=O)cc(-c3ccc(Cl)c(Cl)c3)oc2c(C(=O)O)c1C	> 100 µM (inactive)		> 100 µM (inactive)	> 100 µM (inactive)	92.3 µM (inactive)	> 100 µM (inactive)	> 100 µM (inactive)	> 100 µM (inactive)	> 100 µM (inactive)	> 100 µM (inactive)	> 100 µM (inactive)	> 100 µM (inactive)	> 100 µM (inactive)	> 100 µM (inactive)		> 100 µM (inactive)				
CN1C(=O)C(C)(C)NS1(=O)=O	> 100 µM (inactive)	> 100 µM (inactive)	> 100 µM (inactive)	> 100 µM (inactive)	> 100 µM (inactive)	> 100 µM (inactive)	> 100 µM (inactive)	> 100 µM (inactive)	> 100 µM (inactive)	> 100 µM (inactive)	> 100 µM (inactive)		> 100 µM (inactive)	> 100 µM (inactive)	> 100 µM (inactive)	> 100 µM (inactive)				
N#Cc1c(-c2ccccc2)c(C#N)c(=S)n(C2OC(CO)C(O)C(O)C2O)c1O (stereo not drawn)	> 100 µM (inactive)	> 100 µM (inactive)	> 100 µM (inactive)	> 100 µM (inactive)	> 100 µM (inactive)		> 100 µM (inactive)	> 100 µM (inactive)	> 100 µM (inactive)	> 100 µM (inactive)	> 100 µM (inactive)	> 100 µM (inactive)	> 100 µM (inactive)	> 100 µM (inactive)	> 100 µM (inactive)	> 100 µM (inactive)	> 100 µM (inactive)	> 100 µM (inactive)	> 100 µM (inactive)	> 100 µM (inactive)
C#CC1(O)CCC2C3CCc4cc(Oc5nc(F)nc(-c6c7ccccc7c7sc8ccccc8n67)n5)ccc4C3CC[C@@]21C (stereo partly drawn)	> 100 µM (inactive)	> 100 µM (inactive)	35.2 µM (inactive)	> 100 µM (inactive)	22.1 µM (inactive)	> 100 µM (inactive)	> 100 µM (inactive)	36.3 µM (inactive)	> 100 µM (inactive)	> 100 µM (inactive)	> 100 µM (inactive)	14.4 µM (inactive)		> 100 µM (inactive)	> 100 µM (inactive)	> 100 µM (inactive)				
NC(=O)COc1c(Br)cc(Br)cc1Br	> 100 µM (inactive)		> 100 µM (inactive)	> 100 µM (inactive)	> 100 µM (inactive)	> 100 µM (inactive)	> 100 µM (inactive)	> 100 µM (inactive)		> 100 µM (inactive)	> 100 µM (inactive)	> 100 µM (inactive)	> 100 µM (inactive)	> 100 µM (inactive)	> 100 µM (inactive)	> 100 µM (inactive)				
O=C1CN(C(=O)c2ccccc2)Cc2[nH]c3ccccc3c21	> 100 µM (inactive)	> 100 µM (inactive)	> 100 µM (inactive)	> 100 µM (inactive)	> 100 µM (inactive)	> 100 µM (inactive)	> 100 µM (inactive)	> 100 µM (inactive)	> 100 µM (inactive)	> 100 µM (inactive)	> 100 µM (inactive)	> 100 µM (inactive)	> 100 µM (inactive)	> 100 µM (inactive)	> 100 µM (inactive)	> 100 µM (inactive)				
c1cncc(C2N3CCCCC3[C@@H]3c4[nH]c5ccccc5c4CCN23)c1 (stereo partly drawn)	> 100 µM (inactive)	> 100 µM (inactive)	> 100 µM (inactive)		> 100 µM (inactive)	> 100 µM (inactive)	> 100 µM (inactive)	> 100 µM (inactive)	> 100 µM (inactive)	> 100 µM (inactive)	> 100 µM (inactive)		> 100 µM (inactive)	> 100 µM (inactive)	> 100 µM (inactive)	> 100 µM (inactive)				
COC1=CC(=O)C2[C@H]3Cc4ccccc4[C@H]3C2(C)C1=O (stereo partly drawn)	> 100 µM (inactive)		55.2 µM (inactive)	> 100 µM (inactive)	16.9 µM (inactive)	51.5 µM (inactive)	52.1 µM (inactive)	> 100 µM (inactive)	> 100 µM (inactive)	> 100 µM (inactive)	> 100 µM (inactive)	68.4 µM (inactive)	> 100 µM (inactive)	> 100 µM (inactive)	> 100 µM (inactive)	> 100 µM (inactive)				
COC(=O)[C@@H]1C[C@H](c2ccc(OC)c(OC)c2)OC1=O.COC(=O)[C@H]1C[C@H](c2ccc(OC)c(OC)c2)OC1=O	> 100 µM (inactive)	> 100 µM (inactive)	> 100 µM (inactive)	> 100 µM (inactive)	> 100 µM (inactive)	> 100 µM (inactive)	> 100 µM (inactive)	> 100 µM (inactive)	> 100 µM (inactive)	> 100 µM (inactive)	> 100 µM (inactive)	> 100 µM (inactive)	> 100 µM (inactive)		> 100 µM (inactive)	> 100 µM (inactive)				
COc1cc(C(=O)N[C@H]2CCc3cc(OC)c(OC)c(OC)c3-c3ccc(SC)c(=O)cc32)cc(OC)c1OC	0.136 µM (active)	0.00847 µM (active)	0.00705 µM (active)	0.0025 µM (active)	0.252 µM (active)	0.024 µM (active)	0.00583 µM (active)	0.00871 µM (active)	0.00741 µM (active)	0.0107 µM (active)	0.0813 µM (active)	0.00428 µM (active)	0.00655 µM (active)	0.0102 µM (active)	0.0121 µM (active)	12.3 µM (inactive)				
CCCOc1ccc(/C=C\c2cc(OC)c(OC)c(OC)c2)cc1	73.3 µM (inactive)	18.9 µM (inactive)	> 100 µM (inactive)	28.4 µM (inactive)	85.5 µM (inactive)	62.2 µM (inactive)	23.8 µM (inactive)	> 100 µM (inactive)	55.1 µM (inactive)	10.1 µM (inactive)	40.7 µM (inactive)	13.2 µM (inactive)			> 100 µM (inactive)	63.4 µM (inactive)				
